Test results from EP3290412A1, “HIV-1 NUCLEOCAPSID INHIBITORS” (Università degli Studi di Siena, priority 2016, dated 2018).

Experiments:
Format in all cases: cell-based
HeLa cells = experiment: HeLa Proliferation assay (CellTiter Glo); conditions: 72 hours
Protocol: HeLa cells (ATCC® CCL2™) in DMEM (Dulbecco Modified Eagle's Medium) without phenol red, Thermo, 11880, USA + 10% FBS + 1X PenStrep + 1X Gln or HUVEC cells (ATCC® CRL1730™) in EBM-2 (Endothelial Growth Basal Medium, Lonza, CC3156) + EGM-2 SingleQuotsTMSupplements and Growth Factors (Lonza, CC4176) + 1X Penicyllin-Streptomycin (PenStrep, ThermoFisher) + 1X Glutamine, are plated in a 384 well plate (Thermo, 4334-11, USA) to a density of 2000 cells per well and let recover for four hours at 37 °C, 5% CO2 in a humidified atmosphere. After the recovery, compounds are transferred to assay plates as per compound preparation method. Assay plates are then incubated at 37 °C, 5% CO2 in a humidified atmosphere for 72 hours. Cell viability is measured by the CellTiter Glo (Promega, G8080, USA) as per manufacturer instruction.

[1] = system: Peripheral blood mononuclear cells (PBMC); conditions: human, 7 days
Protocol: Peripheral blood mononuclear cells (PBMC) obtained from healthy donors by separation over Ficoll-Hypaque (GEHealthear-Cat.# GEH17-1440-02) were suspended at 2x10^6 cells/mL in RPMI 1640 (Biowest-Cat.#L0501-500) supplemented with 10% of heat-inactivated sterile fetal bovine serum (Gibco-Cat.#10270-106), 2 mmol/l L-glutamine (Biowest-Cat.#X0550-100), 50 U/mL Penicillin-50 µg/mL Streptomycin (Biowest-Cat.#L0022-100), referred to as complete medium (CM). PBMC were supplemented with 5 µg/mL of phytohaemagglutinin (Sigma Aldr-Cat.#L1668) and cultured in 75 cm^2 flasks (Sarsted-Cat.#833.911.002) for 2 days at 37 °C in a humidified atmosphere with 5% CO2.
PBMC were then washed in CM, counted by trypan blue exclusion (Gibco-Cat. #15250-061), centrifuged and suspended in fresh CM supplemented with 20 IU/mL recombinant human IL-2 (Miltenyi Biotec-Cat.#130-097-748) and seeded in a 96-well-tissue culture plate (Sarsted-Ca#831.837) at the density of 5x10^5 cells/mL (or 1x10^5 cells in 200 µL final CM volume per well). Cells were left untreated (negative control) or treated with different concentrations of the compounds.
After 7 days of incubation cytotoxicity was determined using Promega's CellTiter 96(R) AQueous One Solution Cell Proliferation Assay (MTS assay) (Promega-Cat.#G3581) according to the manufacturer's instuctions. This is a colorimetric method for determining the number of viable cells in proliferation or cytotoxicity assays. The MTS tetrazolium compound is bioreduced by cells into a colored formazan product that is soluble in tissue culture medium. This conversion is presumably accomplished by NADPH or NADH produced by dehydrogenase enzymes in metabolically active cells.
Briefly, MTS solution was thawed at room temperature, or in a water bath at 37 °C and 40 µL of MTS solution was pipeted into each well of the 96-well assay plate containing the samples in 200 µL of culture medium and incubated at 37 °C, 5% CO2 for 4 hours. The optical density was read at 490 nm using a 96-well plate reader (Tecan Infinite F50) and TD50 (toxic dose 50%, dose killing 50% of the cells compared to untreated control) value was calculated by interpolation of the curve obtained by plotting dose against percent mortality and by using "Magellan data analysis software". CM alone plus MTS solution was used as a blank, and cell culture well without compound was used as a cellular control.

[2] = system: HIV-1 reference strain NL4-3; experiment: MonoCycle assay (TZM-bl cells); conditions: Human immunodeficiency virus 1, NL43, TZM-bl, 48 h, read-out: Mono Cycle IC50 nM
Protocol: MonoCycle assay is a cell based assay allowing the evaluation of antiviral activity of HIV-1 inhibitors targeting the early steps of HIV-1 life cycle such as entry, uncoating of viral particles, reverse transcription and integration. The assay consists in the infection of TZM-bl cells (20,000/well) with the HIV-1 reference strain NL4-3 in presence of serial five-fold dilutions of the investigational inhibitors. After 48 hours, cells were lysed adding 40 µl of Glo Lysis Buffer (Promega) to each well for 5 minutes, then 40 µl of Brighy-Glo Luciferase Reagent (Promega) were added to each well for relative luminescence units (RLU) counting using Glo-Max Multi Detection System (Promega). RLU values from each well were elaborated using the GraphPad v5.0 software to calculate the IC50 of each compound.

| SMILES | Proliferation assay HELA TD50 (HeLa cells) | Proliferation assay PBMC TD50 [1] | IC50 [2] | TD50 [1] |
| --- | --- | --- | --- | --- |
| O=C(OCC1CCCCC1)c1nc(-c2ccccn2)nc(O)c1O [Compound 2, cyclohexylmethyl 5,6-dihydroxy-2-(pyridin-2-yl)pyrimidine-4-carboxylate] | >50 µM | 6 µM | > 50000 nM | – |
| O=C(NCC1CC1)c1nc(-c2ccccn2)nc(O)c1O [Compound 3, N-(cyclopropylmethyl)-5,6-dihydroxy-2-(pyridin-2-yl)pyrimidine-4-carboxamide] | >50 µM | 6 µM | 27400 nM | – |
| O=C(NC1CCCCC1)c1nc(-c2ccccn2)nc(O)c1O [Compound 4, N-cyclohexyl-5,6-dihydroxy-2-(pyridin-2-yl)pyrimidine-4-carboxamide] | 8.1353 µM | 4.8 µM | > 50000 nM | – |
| C[C@@H](NC(=O)c1nc(-c2ccccn2)nc(O)c1O)C1CCCCC1 [Compound 5, (R)-N-(1-cyclohexylethyl)-5,6-dihydroxy-2-(pyridin-2-yl)pyrimidine-4-carboxamide] | 3.1844 µM | 3 µM | 2490 nM | – |
| O=C(NCCC1CCCCC1)c1nc(-c2ccccn2)nc(O)c1O [Compound 6, N-(2-cyclohexylethyl)-5,6-dihydroxy-2-(pyridin-2-yl)pyrimidine-4-carboxamide] | 4.2362 µM | 10.48 µM | 4300 nM | – |
| O=C(OC1CCCCC1)c1nc(-c2ccccn2)nc(O)c1O [Compound 13, cyclohexyl 5,6-dihydroxy-2-(pyridin-2-yl)pyrimidine-4-carboxylate] | >50 µM | 16.3 µM | – | – |
| C[C@@H](NC(=O)c1nc(-c2nc3ccccc3[nH]2)nc(O)c1O)C1CCCCC1 [Compound 29, (R)-2-(1H-benzo[d]imidazol-2-yl)-N-(1-cyclohexylethyl)-5,6-dihydroxypyrimidine-4-carboxamide] | 3.3965 µM | 1.7 µM | – | – |
| Cc1ccc(-c2nc(O)c(O)c(C(=O)N[C@H](C)C3CCCCC3)n2)nc1 [Compound 41, (R)-N-(1-cyclohexylethyl)-5,6-dihydroxy-2-(5-methylpyridin-2-yl)pyrimidine-4-carboxamide] | 2.013 µM | 2.8 µM | – | – |
| O=C(NCCC1CCCC1)c1nc(-c2ccccn2)nc(O)c1O [Compound 43, N-(2-cyclopentylethyl)-5,6-dihydroxy-2-(pyridin-2-yl)pyrimidine-4-carboxamide] | 2.1901 µM | 8.09 µM | – | – |
| C[C@@H](NC(=O)c1nc(-c2cc(C(=O)OCc3ccccc3)ccn2)nc(O)c1O)C1CCCCC1 [Compound 46, benzyl (R)-2-(4-((1-cyclohexylethyl)carbamoyl)-5,6-dihydroxypyrimidin-2-yl)isonicotinate] | 6.4784 µM | 1 µM | – | – |
| C[C@@H](NC(=O)c1nc(-c2ccc(C(=O)NCc3ccccc3)cn2)nc(O)c1O)C1CCCCC1 [Compound 50, (R)-2-(5-(benzylcarbamoyl)pyridin-2-yl)-N(1-cyclohexylethyl)-5,6-dihydroxypyrimidine-4-carboxamide] | 2.2912 µM | 2.2 µM | – | – |
| C[C@@H](NC(=O)c1nc(-c2ccc(C(N)=O)cn2)nc(O)c1O)C1CCCCC1 [Compound 51, (R)-2-(5-carbamoylpyridin-2-yl)-N-(1-cyclohexylethyl)-5,6-dihydroxypyrimidine-4-carboxamide] | 26.976 µM | 8 µM | – | – |
| C[C@H](NC(=O)c1nc(-c2cc(C(F)(F)F)ccn2)nc(O)c1O)C1CCCCC1 [Compound 52, (S)-N-(1-cyclohexylethyl)-5,6-dihydroxy-2-(4-(trifluoromethyl)pyridin-2-yl)pyrimidine-4-carboxamide] | 10.186 µM | 1.2 µM | – | – |
| C[C@@H](NC(=O)c1nc(-c2cccc(C(=O)OCc3ccccc3)n2)nc(O)c1O)C1CCCCC1 [Compound 54, benzyl (R)-6-(4-((1-cyclohexylethyl)carbamoyl)-5,6-dihydroxypyrimidin-2-yl)picolinate] | 24.972 µM | 25 µM | – | – |
| C[C@@H](NC(=O)c1nc(-c2ccc(CO)cn2)nc(O)c1O)C1CCCCC1 [Compound 55, (R)-N-(1-cyclohexylethyl)-5,6-dihydroxy-2-(5-(hydroxymethyl)pyridin-2-yl)pyrimidine-4-carboxamide] | 1.4665 µM | – | 9050 nM | – |
| CC1CCC(NC(=O)c2nc(-c3ccccn3)nc(O)c2O)CC1 (centres unmarked) [Compound 56, 5,6-dihydroxy-N-(4-methylcyclohexyl)-2-(pyridin-2-yl)pyrimidine-4-carboxamide] | 3.2039 µM | 4.6 µM | – | – |
| CC1CCCC(NC(=O)c2nc(-c3ccccn3)nc(O)c2O)C1 (centres unmarked) [Compound 57, 5,6-dihydroxy-N-(3-methylcyclohexyl)-2-(pyridin-2-yl)pyrimidine-4-carboxamide] | 1.9094 µM | 2.7 µM | – | – |
| CC1(C)CCC(NC(=O)c2nc(-c3ccccn3)nc(O)c2O)CC1 [Compound 58, N-(4,4-dimethylcyclohexyl)-5,6-dihydroxy-2-(pyridin-2-yl)pyrimidine-4-carboxamide] | 2.0452 µM | 1.6 µM | – | – |
| COc1ccc2nc(-c3nc(O)c(O)c(C(=O)N[C@H](C)C4CCCCC4)n3)ccc2c1 [Compound 66, (R)-N-(1-cyclohexylethyl)-5,6-dihydroxy-2-(6-methoxyquinolin-2-yl)pyrimidine-4-carboxamide] | 3.66 µM | 6.6 µM | – | – |
| Cc1ccc(-c2nc(O)c(O)c(C(=O)N[C@H](C)C3CCCCC3)n2)nc1C [Compound 67, (R)-N-(1-cyclohexylethyl)-2-(,5,6-dimethylpyridin-2-yl)-5,6-dihydroxypyrimidine-4-carboxamide] | 3.7577 µM | 6.7 µM | – | – |
| C[C@H](NC(=O)c1nc(-c2nccc3[nH]ccc23)nc(O)c1O)C1CCCCC1 [Compound 86, (S)-N-(1-cyclohexylethyl)-5,6-dihydroxy-2-(1H-pyrrolo[3,2-c]pyridin-4-yl)pyrimidine-4-carboxamide] | 1.4147 µM | – | > 50000 nM | – |
| C[C@@H](NC(=O)c1nc(-c2ccc(CN3CCCC3)cn2)nc(O)c1O)C1CCCCC1 [Compound 93, (R)-N-(1-cyclohexylethyl)-5,6-dihydroxy-2-(5-(pyrrolidin-1-ylmethyl)pyridin-2-yl)pyrimidine-4-carboxamide] | – | 1.87 µM | > 50000 nM | – |
| Cc1nnc(C(=O)NC(C)(C)c2nc(C(=O)NCc3ccc(F)cc3)c(O)c(=O)n2C)o1 [Raltegravir™, Raltegravir, reference compound] | – | – | – | > 50 µM |
